Literature values in patent US20040167185A1, “Methods of treating conditions associated with an Edg-3 receptor” (priority 2003, published 2004).
Where a name gives a salt, the structure may show the parent alone. Blank lines part the entries; values can stand above or below the compound they belong to.

Assays:
[1] = biological target: Serotonin 5-HT1, non-selective; conditions: Kd of the radioligand; Wistar rat cerebral cortex; historical value
[2] = biological target: T1, Angiotensin AT2 (Homo sapiens, UniProt P50052); conditions: Kd of the radioligand; Human recombinant Hela cells; historical value
T1 construct: expressed in transfected cells; host or cells: Hela cells
T1 sequence (P50052 1-363): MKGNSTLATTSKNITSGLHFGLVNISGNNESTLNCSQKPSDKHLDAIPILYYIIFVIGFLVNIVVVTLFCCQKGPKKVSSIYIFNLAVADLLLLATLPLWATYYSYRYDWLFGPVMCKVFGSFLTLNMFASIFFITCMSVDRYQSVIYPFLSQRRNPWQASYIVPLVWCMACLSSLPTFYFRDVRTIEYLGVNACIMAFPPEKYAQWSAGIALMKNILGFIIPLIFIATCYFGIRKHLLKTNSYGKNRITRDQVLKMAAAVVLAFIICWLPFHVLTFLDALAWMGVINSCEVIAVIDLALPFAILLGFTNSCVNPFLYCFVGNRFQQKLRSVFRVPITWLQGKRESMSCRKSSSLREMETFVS

[3] = biological target: Adrenergic β; conditions: Kd of the radioligand; Wistar rat brain; historical value
[4] = biological target: Adrenergic α1, non-selective

Compound: NCCc1c[nH]c2ccc(O)cc12 [^3H Serotonin (5-HT) Trifluoroacetate, Serotonin (5-HT) Trifluoroacetate]
Kd [1]: 0.61 nM

Kd [2]: 0.012 nM
Compound: CGP-42112A [^125I CGP-42112A]

Kd [3]: 0.5 nM
Compound: CCCc1ccccc1OCC(O)CNC(C)C (stereo not shown) [^3H Dihydroaplenolol, Dihydroaplenolol]

Compound: COc1cc2nc(N3CCN(C(=O)c4ccco4)CC3)nc(N)c2cc1OC [^3H Prazosin, Prazosin]
Kd [4]: 0.29 nM
